{"source": "patent US20180298344A1", "about": "“Realistic Humanized Model of Disease Matrix Environment for Evaluation of Therapeutic Reversal or Cell Fate” (Yale University, priority 2017, published 2018)", "key": {"[1]": {"tested_on": "human microvascular pericytes (PC)", "assay": "Long-term (28 day) differentiation of PC on glass coverslips: matrix deposition, fibrotic lesions, α-SMA and vimentin", "type": "cell-based", "conditions": "for increase in the formation of lesions compared with nonactivated control: glass", "protocol": "Human microvascular PC were isolated from a readily available and nearly inexhaustible source, human placental tissue, by microvascular segment explant outgrowth (Sava et al., Microcirculation, 2015, 22:54-67; Ayres-Sander et al., PLoS One, 2013, 8:e60025; Lauridsen et al., FASEB, 2014, 28:1166-1180; Maier et al., Microcirculation, 2010, 17:367-380). Human placental tissue was segmented, digested with collagenase, and the resulting cells were cultured in M199 (Gibco, Grand Island, NY, USA) medium supplemented with 20% FBS (Hyclone Laboratories, Logan, Utah, USA), and 1% penicillin-streptomycin (Gibco). Isolated pericytes were screened by flow cytometry against NG2 (H-300, Santa Cruz Biotechnology), CD90 (K-15, Santa Cruz), CD146 (P1H12, Biolegend, San Diego, Calif., USA), PDGFR-β (18A2, Santa Cruz), α-SMA (1A4, Santa Cruz), SMMHC (N-16, Santa Cruz), CD31 (C20, Santa Cruz), CD34 (581, Sigma) and CD45 (MEM-28, Sigma). As negative control, PC were incubated with isotype matched IgG. Samples were run on a Stratedigm S1000EXi Flow Cytometer (Stratedigm, San Jose, Calif. USA) and analyzed with FlowJo software (Tree Star, Ashland, Oreg., USA).\nFor short term (7 day) differentiation studies, PC (passage 3-7) were seeded on healthy or IPF lung tissue slices, polyacrylamide hydrogels, or 25 mm glass coverslips (VWR) at 100×10^3 cells per sample and activated with control media (non-activated), or 1 ng/mL TGF-β1 (PeproTech, Rocky Hill, N.J., USA) for 7 days (18, 19). For bleomycin activation, the cells were activated with 1 μg/mL bleomycin sulfate (Cayman Chemical, Ann Arbor, Mich.) for 1 day and the media was replaced with non-activated media for the remaining 6 days (Sava et al., Microcirculation, 2015, 22:54-67; Sterling et al., J Bio Chem, 1983, 258:14438-14444). TGF-β1 and bleomycin concentrations were based on reports consistent with activation of fibroblasts (Sava et al., Microcirculation, 2015, 22:54-67; Maroni and Davis, Bio Reprod, 2012, 87:127). Treatment with CCG-1423 (Sigma) was performed at day 0 for the full 7 days, and labeled as early treatment, or at day 7 and performed for 7 days, and labeled as late treatment. For long-term (28 day) differentiation studies, PC were cultured on 25 mm glass coverslips (VWR) or normal lung sections and the cell media was supplemented with 100 μM ascorbic acid (Spectrum Chemicals, New Brunswick, N.J., USA) to induce matrix deposition. Activation was performed with control media (non-activated), or 1 ng/mL TGF-β1. The media was replaced 3 times a week for 4 consecutive weeks (28 days) in order to mimic the chronic conditions present during fibrosis (Moeller et al., Int J Biochem Cell Biol, 2008, 40:362-382; Sava et al., Microcirculation, 2015, 22:54-67). Treatment with nintedanib (Santa Cruz) was performed at day 21 for the remaining 7 days, and labeled as early treatment, or at day 28 and performed for 2 days, and labeled as late treatment. Concentrations of CCG-1423 (1.0 nM), and nintedanib (1.0 nM) are based on therapeutic dose in studies performed on myofibroblasts (Evelyn et al., Mol Cancer Ther, 2007, 6:2249-2260, Hostettler et al., Resp Res, 2014, 15:157; Conte et al., Eur J Pharm Sci, 2014, 58:13-19; Shi et al., PLoS One, 2011, 6:e28134).\nPericyte pro-fibrotic activation/transition/phenotype was evaluated by positive staining for α-smooth muscle actin (SMA) using anti-α-SMA (1A4, Santa Cruz) and anti-vimentin (V630, Sigma). For matrix composition analysis, the coverslips were stained with anti-collagen I (ab233446, Abcam, Cambridge, Mass., USA), anti-laminin (Clone ab11575, Abcam), anti-collagen IV (Clone C1926, Sigma), or anti-fibronectin (Clone F3648, Sigma) antibodies."}, "[2]": {"tested_on": "cultured lung fibroblasts", "conditions": "cultured lung fibroblasts in vitro; cited from earlier work"}, "[3]": {"tested_on": "idiopathic pulmonary fibrosis patients", "conditions": "IPF patients; cited from earlier work"}, "[4]": {"conditions": "nintedanib 7 days, TGF-β1-activated PC on glass, flow cytometry"}}, "data": [{"compound": "COC(=O)c1ccc2c(c1)NC(=O)/C2=C(\\Nc1ccc(N(C)C(=O)CN2CCN(C)CC2)cc1)c1ccccc1", "note": "[nintedanib]", "values": [{"measurement": "expression of vimentin", "setting": "[1]; [4]", "result": "without affecting"}, {"measurement": "expression of α-SMA", "setting": "[1]; [4]", "result": "without affecting"}, {"measurement": "fibrotic node formation", "setting": "[1]; nintedanib 7 days, TGF-β1-activated PC on glass, versus TGF-β1", "result": "reduced"}, {"measurement": "fibronectin", "setting": "[1]; nintedanib 7 days, TGF-β1-activated PC on glass, versus TGF-β1, immunoblotting, P=0.002", "result": "reduced"}, {"measurement": "collagen I", "setting": "[1]; nintedanib 7 days, TGF-β1-activated PC on glass, versus TGF-β1, immunoblotting, P=0.01", "result": "reduced"}, {"measurement": "TGF-β1-induced myofibroblast differentiation and matrix deposition", "setting": "[2]", "result": "oppose"}, {"measurement": "decline in forced vital capacity", "setting": "[3]", "result": "reducing the decline in forced vital capacity"}]}, {"compound": "TGF-β1: transforming growth factor (TGF)-β1, fibrotic activator, used at 1 ng/mL", "values": [{"measurement": "increase in the formation of lesions compared with nonactivated control", "setting": "[1]; day 14 of TGF-β1 exposure, P<0.001", "result": 2.2, "unit": "fold"}, {"measurement": "increase in the formation of lesions compared with nonactivated control", "setting": "[1]; day 28 of TGF-β1 exposure, P<0.01", "result": 1.8, "unit": "fold"}, {"measurement": "vimentin expression compared with nonactivated control", "setting": "[1]; long-term TGF-β1 activation on glass, P<0.0001", "result": "significant increase"}, {"measurement": "α-SMA expression compared with nonactivated control", "setting": "[1]; long-term TGF-β1 activation on glass, P=0.011", "result": "significant increase"}]}]}
